One data set deals with Thymidylate synthase (Homo sapiens, UniProt P04818). Briefly: Inhibition of human thymidylate synthase.
Another data set addresses T1, Dihydrofolate reductase (Homo sapiens, UniProt P00374).
T1 sequence (P00374 whole entry): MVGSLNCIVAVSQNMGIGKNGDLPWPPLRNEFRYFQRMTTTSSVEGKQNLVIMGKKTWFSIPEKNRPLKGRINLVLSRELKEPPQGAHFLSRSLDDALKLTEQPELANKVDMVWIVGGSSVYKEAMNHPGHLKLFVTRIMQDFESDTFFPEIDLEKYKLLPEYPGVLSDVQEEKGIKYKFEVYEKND
The experiment in a line: Inhibition of human DHFR.

Data set [1] has as its system Cryptosporidium hominis. The experiment in a line: Antiparasitic activity against compound pre-treated Cryptosporidium hominis Iowa sporozoites infected in human HCT8 cells assessed as reduction in parasite infection. The format is functional, organism-based. The note with it: HCT-8.
Data set [2] is described as follows: Toxicity in Cryptosporidium hominis Iowa sporozoites infected human HCT8 cells assessed as effect on cell viability by microscopy. The format is cell-based. The note with it: hct-8.
Data set [3] in a line: Toxicity in Cryptosporidium hominis Iowa sporozoites infected human HCT8 cells assessed as effect on RNA levels. Particulars: hct-8. The format is cell-based.
A short description of data set [4]: Toxicity in Cryptosporidium hominis Iowa sporozoites infected human HCT8 cells assessed as effect on cell morphology by microscopy. The format is cell-based. Particulars: hct-8.
The test system of data set [5] is Cryptosporidium hominis. Briefly: Antiparasitic activity against Cryptosporidium hominis Iowa intracellular forms infected in human HCT8 cells assessed as reduction in parasite infection dosed 2 hrs after parasite infection. The note with it: HCT-8, 2 h. The format is functional, organism-based.

Sequence of Thymidylate synthase (P04818 whole entry): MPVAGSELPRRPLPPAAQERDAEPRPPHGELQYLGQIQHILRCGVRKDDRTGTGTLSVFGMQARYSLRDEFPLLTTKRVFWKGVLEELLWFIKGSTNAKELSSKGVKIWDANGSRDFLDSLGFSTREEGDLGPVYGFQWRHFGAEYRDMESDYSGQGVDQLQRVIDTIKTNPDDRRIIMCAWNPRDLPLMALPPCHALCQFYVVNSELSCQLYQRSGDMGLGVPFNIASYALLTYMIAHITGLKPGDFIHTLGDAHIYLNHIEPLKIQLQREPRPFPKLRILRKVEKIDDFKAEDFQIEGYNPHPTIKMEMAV

Broadly, the IC50 is the midpoint of a concentration-inhibition curve. For orientation: EC50 means the concentration needed to bring the measured effect to its halfway point. Regarding `Nc1nc2[nH]cc(Cc3ccc(C(=O)N[C@@H](CCC(=O)O)C(=O)O)cc3)c2c(=O)[nH]1`, the IC50 against Thymidylate synthase was determined as 1800 nM; against Dihydrofolate reductase, 640 nM. For the same compound, the EC50 in the data set on Cryptosporidium hominis [1] and in the data set with Cryptosporidium hominis [5] was 1000 nM each time. Further, the Activity result in data set [2], in data set [3] and in data set [4] was “Non-toxic” throughout.

Source of the values: ChEMBL document CHEMBL3351290, “Structural studies provide clues for analog design of specific inhibitors of Cryptosporidium hominis thymidylate synthase-dihydrofolate reductase” (Bioorg Med Chem Lett, 2014).
